Test results from publication PMC7660650, “Chemical Starting Matter for HNF4α Ligand Discovery and Chemogenomics” (International Journal of Molecular Sciences, 2020).
Values joined by “and” are separate entries in the source; they are usually repeats but may differ in a detail not shown here. Identical values can stand only once. “Also recorded” adds a separate entry of the source. Like-named read-outs stand apart in the source and are kept apart here.

What was measured:
[1] = target: T1, Gal4-HNF4α (human HNF4α LBD) (Homo sapiens, UniProt P41235); assay: Hybrid Gal4-HNF4α reporter gene assay in transiently transfected HEK293T cells; type: cell-based; settings: for HNF4a-screening_activity_(mean_of_n=2): Table S1, primary screening; for Primary Screen (Fold Act., 50 µM): mean of two biologically independent repeats, vs. 0.2% DMSO; for Follow-up HNF4α (fold activation of reporter activity) / EC50: at least four repeats; for HNF4α Ligand Type: Gal4-HNF4α assay; for EC50: read-out: Validated HNF4α Modulation EC50
T1 construct: uniprot entry: P41235-1, residues 142-377; expressed in transfected cells; host or cells: HEK293T
T1 sequence (P41235 142-377): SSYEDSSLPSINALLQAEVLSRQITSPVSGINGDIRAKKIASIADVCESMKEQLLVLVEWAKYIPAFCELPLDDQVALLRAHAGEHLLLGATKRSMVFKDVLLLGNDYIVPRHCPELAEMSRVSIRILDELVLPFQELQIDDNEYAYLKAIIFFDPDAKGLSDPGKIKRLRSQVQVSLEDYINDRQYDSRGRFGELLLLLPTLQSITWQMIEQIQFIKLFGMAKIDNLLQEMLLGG

Gal4–VP16 = assay: Gal4-VP16 control experiment (reporter gene assay, HEK293T cells); type: cell-based; settings: mean ± SD
Protocol: The frame and sequence of the fusion plasmid were verified by sequencing. pFR-Luc (Stratagene) was used as reporter plasmid and pRL-SV40 (Promega, Madison, WI, USA) served for normalization of transfection efficiency and cell growth. The Gal4-VP16 [25] expressed from plasmid pECE-SV40-Gal4-VP16 [26] […] Assay Procedure: HEK293T cells were grown in Dulbecco’s Modified Eagle Medium (DMEM) high glucose, supplemented with 10% Fetal Bovine Serum (FCS), sodium pyruvate (1 mM), penicillin (100 U/mL), and streptomycin (100 μg/mL) at 37 °C and 5% CO2. The day before transfection, HEK293T cells were seeded in 96-well plates (3.0·10^4 cells/well). Before transfection, the medium was changed to Opti-MEM without supplements. Transient transfection was carried out using Lipofectamine LTX reagent (Invitrogen, Carlsbad, CA, USA) according to the manufacturer’s protocol with pFR-Luc (Stratagene), pRL-SV40 (Promega), and the pFA-CMV-hHNF4α-LBD clone or pECE-SV40-Gal4-VP16 for control experiments. Five hours after transfection, the medium was changed to Opti-MEM supplemented with penicillin (100 U/mL), streptomycin (100 μg/mL), now additionally containing 0.1% DMSO (0.2% in the primary screen) and the respective test compounds or 0.1% DMSO (0.2% in the primary screen) alone as the untreated control. In the primary screening, the core set of the Prestwick Drug Fragment Library (Prestwick Chemical, Illkirch, France) was tested at 50 µM concentration in two biologically independent repeats. In the follow-up and dose-response profiling, each concentration was tested in duplicates in at least three biologically independent repeats. Following overnight (12−14 h) incubation with the test compounds, cells were assayed for luciferase activity using Dual-Glo™ luciferase assay system (Promega) according to the manufacturer’s protocol. Luminescence was measured with a Tecan Spark 10M luminometer (Tecan Group Ltd., Männedorf, Switzerland). […] Fold activation was obtained by dividing the mean RLU of test compounds at a respective concentration by the mean RLU of untreated control.

[2] = test system: HNF4α-regulated gene fructose-1,6-bisphosphatase 1 (FBP1); assay: FBP1 mRNA expression in HepG2 cells by qRT-PCR; type: cell-based, human; settings: 8 h, vs 0.1% DMSO
[3] = target: T2, recombinant HNF4α LBD protein (Homo sapiens, UniProt P41235); assay: Isothermal titration calorimetry (ITC); type: binding; settings: for Kd: 25 °C, protein 10–20 µM titrated with ligand 50–200 µM, read-out: HNF4α LBD Binding (Kd); for n (ITC binding model): Figure 4
T2 construct: The LDB domain of HNF4α (aa. 148–377) subcloned into pNIC28-Bsa4; His6 (N); made in house; host or cells: E. coli Rosetta
T2 sequence (P41235 148-377): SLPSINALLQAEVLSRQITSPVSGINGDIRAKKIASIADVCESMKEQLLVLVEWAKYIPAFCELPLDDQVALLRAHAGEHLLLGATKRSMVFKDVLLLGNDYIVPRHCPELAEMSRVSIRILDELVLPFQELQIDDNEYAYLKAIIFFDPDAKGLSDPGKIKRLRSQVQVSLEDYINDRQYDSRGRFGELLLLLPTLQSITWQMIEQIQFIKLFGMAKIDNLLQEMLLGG
Protocol: The recombinant protein harboring an N-terminal His6 tag was initially purified by Ni^2+-affinity chromatography. Size exclusion chromatography was performed using Superdex S75 column (GE Healthcare, Chicago, IL, USA.), and the pure protein was stored in a buffer containing 20 mM 4-(2-hydroxyethyl)-1-piperazineethanesulfonic acid (HEPES) pH 7.5, 200 mM NaCl, 0.5 mM tris(2-carboxyethyl)phosphine (TCEP), and 5% w/v glycerol.
Isothermal titration calorimetry was performed on an Affinity ITC (TA Instruments, New Castle, DE, USA). The instrument was equilibrated to 25 °C and the stirring rate was set to 75 rpm. HNF4α buffer (20 mM HEPES pH 7.5, 200 mM NaCl, 0.5 mM TCEP, 5% w/v glycerol) with up to 1% DMSO (final concentration) was used for ITC. The recombinant HNF4α LBD protein (10–20 µM, 172 µL) was titrated with fragments (4, 6, 7, 9, 10; 50–200 µM; dissolved in the same buffer). A total of 20-30 injections with a volume of 2.5–4 µL and with an interval of 200–300 s were performed. As a control experiment, HNF4α protein was titrated with buffer, and the buffer was titrated with test compound to detect dissolution artifacts with otherwise identical experimental parameters. Data analysis was performed with NanoAnalyze^TM Software (TA Instruments, New Castle, DE, USA.) using an independent binding model.

[4] = target: the molecule itself; assay: ITC; HNF4α LBD protein alone; dimer dissociation upon dilution (seen when inverse ITC experiments were tried); dimer to monomers
[5] = significance of Gal4-HNF4α follow-up vs Gal4-VP16 control at the same concentration

CC1CCC(=O)O1 (stereo not shown) [Prestw-Frag-3757, CC1CCC(=O)O1]
HNF4a-screening_activity_(mean_of_n=2) ([1]; 50 µM): 1.285

c1ccc(-n2cccn2)cc1 [Prestw-Frag-3759, c1cnn(c1)-c1ccccc1]
HNF4a-screening_activity_(mean_of_n=2) ([1]; 50 µM): 1.212

Cc1cc(C(C)(C)CC(C)(C)C)ccc1O [compound 1, Cc1cc(ccc1O)C(C)(C)CC(C)(C)C]
Primary Screen (Fold Act., 50 µM) ([1]; 50 µM): 2.48 fold activation | Follow-up HNF4α (fold activation of reporter activity) ([1]; 50 µM, mean ± SD): 1.1 ± 0.2 (50 µM) fold activation | HNF4a-screening_activity_(mean_of_n=2) ([1]; 50 µM, listed as Prestw-Frag-1016): 2.483 and 1.264 | VP16 Control (fold activation of reporter activity) (Gal4–VP16; 50 µM): 0.80 ± 0.07 (50 µM) fold activation

COc1ccc2c(c1)OCC2=O [compound 2, COc1ccc2C(=O)COc2c1]
Primary Screen (Fold Act., 50 µM) ([1]; 50 µM): 1.55 fold activation | Follow-up HNF4α (fold activation of reporter activity) ([1]; 50 µM, mean ± SD): 1.3 ± 0.2 (50 µM) fold activation | HNF4a-screening_activity_(mean_of_n=2) ([1]; 50 µM, listed as Prestw-Frag-1362): 0.8621 and 1.554 | VP16 Control (fold activation of reporter activity) (Gal4–VP16; 50 µM): 1.3 ± 0.3 (50 µM) fold activation

Nc1nc2cc(C(=O)c3ccccc3)ccc2[nH]1 [compound 3]
Primary Screen (Fold Act., 50 µM) ([1]; 50 µM): 2.09 fold activation | Follow-up HNF4α (fold activation of reporter activity) ([1]; 50 µM, mean ± SD): 1.5 ± 0.2 (50 µM) fold activation | VP16 Control (fold activation of reporter activity) (Gal4–VP16; 50 µM): 1.7 ± 0.3 (50 µM) fold activation

O=C(Nc1ccccc1Cl)c1ccccc1O [compound 4, Oc1ccccc1C(=O)Nc1ccccc1Cl]
FBP1 mRNA expression ([2]; HepG2, 50 µM): promoted FBP1 expression; also recorded: tendency to enhanced FBP1 mRNA levels

CC(C)CC(N)C1(c2ccc(Cl)cc2)CCC1 (stereo not shown) [compound 5, CC(C)CC(N)C1(CCC1)c1ccc(Cl)cc1]
Primary Screen (Fold Act., 50 µM) ([1]; 50 µM): 1.80 fold activation | Follow-up HNF4α (fold activation of reporter activity) ([1]; 50 µM, mean ± SD): tendency for HNF4α modulation | Follow-up HNF4α (fold activation of reporter activity) ([1]; 100 µM, mean ± SD): 2.5 ± 0.2 (100 µM) fold activation | HNF4α Ligand Type [1]: Agonist | HNF4a-screening_activity_(mean_of_n=2) ([1]; 50 µM, listed as Prestw-Frag-1566): 0.9114 and 1.797 | EC50 ([1]; dose-response, mean ± SD): > 100 µM | HNF4α vs. VP16 (p, t-test) [1, 5]: p < 0.0001 (***) | VP16 Control (fold activation of reporter activity) (Gal4–VP16; 100 µM): 1.1 ± 0.1 (100 µM) fold activation

Nc1ncn([C@@H]2O[C@H](CO)[C@@H](O)[C@H]2O)c(=O)n1 [compound 6, Nc1ncn([C@@H]2O[C@H](CO)[C@@H](O)[C@H]2O)c(=O)n1]
HNF4α vs. VP16 (p, t-test) [1]: p = 0.0034 (**) | FBP1 mRNA expression ([2]; HepG2, 10 µM): significantly promoted FBP1 expression

Nc1ncns1 [compound 7, Nc1ncns1]
Primary Screen (Fold Act., 50 µM) ([1]; 50 µM): 2.36 fold activation | Follow-up HNF4α (fold activation of reporter activity) ([1]; 50 µM, mean ± SD): 3.0 ± 0.3 (50 µM) fold activation | HNF4α Ligand Type [1]: Agonist | HNF4a-screening_activity_(mean_of_n=2) ([1]; 50 µM): 2.362 | EC50 ([1]; dose-response, mean ± SD): 31 µM | Validated HNF4α Modulation maximum fold act. ([1]; maximum fold increase in reporter activity relative to 0.1% DMSO): 3.8 fold act. and 3.8 ± 0.6 fold act. | HNF4α vs. VP16 (p, t-test) [1, 5]: p < 0.0001 (***) | FBP1 mRNA expression ([2]; HepG2, 50 µM): promoted FBP1 expression; also recorded: tendency to enhanced FBP1 mRNA levels | Kd [3]: ~7 µM and 7 µM | n (ITC binding model) [3]: 0.9 | VP16 Control (fold activation of reporter activity) (Gal4–VP16; 50 µM): 1.4 ± 0.1 (50 µM) fold activation

Cc1nc(-c2ccccc2)c(-c2ccccc2)o1 [compound 8]
Follow-up HNF4α (fold activation of reporter activity) ([1]; 50 µM, mean ± SD): 1.1 ± 0.2 (50 µM) fold activation | VP16 Control (fold activation of reporter activity) (Gal4–VP16; 50 µM): 0.92 ± 0.07 (50 µM) fold activation

O=C(O)c1cc(-c2ccccc2)ccc1O [compound 9, OC(=O)c1cc(ccc1O)-c1ccccc1]
FBP1 mRNA expression ([2]; HepG2, 50 µM): decreased FBP1 mRNA levels; also recorded: robustly decreased FBP1 expression

OC(c1ccc(F)cc1)c1ccc(F)cc1 [compound 10]
Follow-up HNF4α (fold activation of reporter activity) ([1]; 50 µM, mean ± SD): 0.75 ± 0.05 (50 µM) fold activation | HNF4α Ligand Type [1]: inverse HNF4α agonism; also recorded: Inverse agonist | IC50 ([1]; dose-response, inverse agonism, mean ± SD, read-out: Validated HNF4α Modulation IC50): 24 µM | HNF4α vs. VP16 (p, t-test) [1, 5]: p = 0.0057 (**) | FBP1 mRNA expression ([2]; HepG2, 50 µM): decreased FBP1 mRNA levels; also recorded: robustly decreased FBP1 expression | Kd [3]: ~1.7 µM and 1.7 µM | n (ITC binding model) [3]: 1.1 | VP16 Control (fold activation of reporter activity) (Gal4–VP16; 50 µM): 1.1 ± 0.2 (50 µM) fold activation

Cc1cc(=O)n(-c2ccc(C)c(C)c2)[nH]1 [compound 11, Cc1cc(=O)n([nH]1)-c1ccc(C)c(C)c1]
Primary Screen (Fold Act., 50 µM) ([1]; 50 µM): 0.32 fold activation | Follow-up HNF4α (fold activation of reporter activity) ([1]; 50 µM, mean ± SD): tendency for HNF4α modulation | Follow-up HNF4α (fold activation of reporter activity) ([1]; 100 µM, mean ± SD): 0.21 ± 0.03 (100 µM) fold activation | HNF4a-screening_activity_(mean_of_n=2) ([1]; 50 µM): 0.3184 | VP16 Control (fold activation of reporter activity) (Gal4–VP16; 100 µM): 0.21 ± 0.02 (100 µM) fold activation

B1: recombinant HNF4α LBD protein (hepatocyte nuclear factor 4α ligand-binding domain, aa. 148–377) (domain or fragment, human, UniProt P41235-1 148-377, looked up)
chain: T2 sequence (P41235 148-377)
notes: 148-377, subcloned into pNIC28-Bsa4; UniProt entry and species are printed for the Gal4-HNF4α reporter construct, not expressly for the E. coli construct; also called NR2A1
binding result [4]: binds
